Measurements published in article PMC12074795, “Synthesis and biological evaluation of esterified anti-inflammatory drugs with ethylene glycol linkers: cytotoxicity, anti-inflammatory and antioxidant properties” (Royal Society Open Science, 2025).
pIC50: −log10 of the molar value. Where two headings read alike, the source gives them in different places.

Columns and labels:
[1] = system: nitric oxide production by macrophages activated with Saccharomyces cerevisiae; test: Inhibition of nitric oxide production by stimulated macrophages (Griess); format: cell-based, mouse
Protocol: Second, the anti-inflammatory activity of these compounds at a maximum concentration of 0.22 mM was evaluated by assessing their ability to inhibit the synthesis of NO (figure 2).
Peritoneal macrophages were isolated from four eight-week-old, 25 g Wistar mice by intraperitoneal injection of 0.5 ml of 2% starch solution (inflammatory agent) to stimulate their production. Four days later, the animals were sacrificed, and 5 ml of phosphate buffered saline (PBS) buffer (0.1 M, pH 7.4) was injected into their peritoneal cavity with a syringe. After massage of the peritoneal cavity, the injected buffer was slowly aspirated through a small abdominal incision. The resulting solution containing macrophages was transferred to 15 ml Falcon tubes and kept in ice. The fluid obtained was then centrifuged (1620 g, 4°C and 10 min), and the supernatant was removed. The erythrocytes were removed by osmotic shock. The cells were suspended in 1 ml hypotonic 0.05 M NaCl solution for 1 min. Isotonicity was then restored by adding 1 ml of 0.25 M NaCl. The mixture was centrifuged (1620 g, 4°C and 10 min) and the resulting pellet was suspended in 2 ml of Dulbecco's modified eagle medium (DMEM) (containing 0.2% streptomycin and penicillin, 0.4 g l^−1 bovine serum albumin and 3.7 g l^−1 NaHCO3 in PBS and filtered with 0.22 µm Millipore filters).
In the 96-well plate, 150 µl of a cell suspension (10^4 cells per well) were distributed in different wells. In the test and positive control wells, 50 µl of Saccharomycces cerevisiae (250 µg ml^–1) was added to stimulate the production of pro-inflammatory cytokines. Meanwhile 50 µl of DMEM was added in the negative control wells. The microplate was incubated at 37°C (5% CO2) for 1 h, then 50 µl of solution of compounds or baicalin at different concentrations (0.241 × 10^–3, 2.23 × 10^–3, 22.4 × 10^–3, 220 × 10^–3 and 2410 × 10^–3 mM) were added to the test wells and 50 µl DMEM to the positive (cells activated with Saccharomyces cerevisiae) and negative (inactivated cells) control wells. After 3 h of incubation at 37°C (5% CO2), the cell supernatants were used for NO [41].
A total of 100 µl of the previously obtained cell supernatants were mixed with 100 µl of Griess reagent (1% sulphanylamide, 0.1% naphthyl ethylenediamine dihydrochloride in 2.5% v/v phosphoric acid). The mixture was incubated for 10 min at room temperature and the absorbance is read at 550 nm. The amount of nitrite was measured using the standard sodium […] curve. The percentage inhibition of nitric oxide synthesis was calculated using the following formula:
%inhibition=[(ODcontrol−ODassay/ODcontrol]×100).

[2] = Cell viability (MTT) assay on macrophages in primary culture; format: cell-based; settings: Wistar, mouse, peritoneal macrophages in primary culture, concentrations 2.41 × 10^–4 to 2.41 mM, read-out: half cytotoxic concentration (IC50)
Protocol: The inflammatory response is part of the body’s first line of defence against a pathogen. Macrophages are one of the most studied inflammatory cells due to their high involvement in this inflammatory process. The recognition of an antigenic motif by a toll-like receptor on macrophages leads to a cascade of molecular signalling to the synthesis of pro-inflammatory mediators such as NO to eliminate the pathogen. First, the effect of the compounds on cell viability was assessed by measuring the cytotoxicity of the compounds in cell culture using the MTT assay at concentrations ranging from 2.41 × 10^–4 to 2.41 mM (figure 1).
Peritoneal macrophages were isolated from four eight-week-old, 25 g Wistar mice by intraperitoneal injection of 0.5 ml of 2% starch solution (inflammatory agent) to stimulate their production. Four days later, the animals were sacrificed, and 5 ml of phosphate buffered saline (PBS) buffer (0.1 M, pH 7.4) was injected into their peritoneal cavity with a syringe. […]
The effect of the solutions of synthetic compounds on the viability of macrophages in primary culture was determined by using the MTT as previously described in the literature. […] Finally, the absorbance of the purple solution was read at 630 nm against the acidified isopropanol solution. The percentage of cell viability was calculated using the following formula: […]

[3] = Mus musculus, Macrophage, 3 h, peritoneal macrophages activated with Saccharomyces cerevisiae, 3 h incubation, Griess reagent, read-out: IC50 of NO inhibition assay
[4] = Mus musculus, Macrophage, classified according to the IC50 values of table 1, read-out: anti-inflammatory activity (class by IC50 of NO inhibition)
[5] = peritoneal macrophages activated with Saccharomyces cerevisiae, 3 h incubation, Griess reagent, read-out: IC50 of NO inhibition assay

SMILES	pIC50 [1, 3]	pIC50 [1, 4]	pIC50 [1, 5]	IC50 at 3 h [2]
O=C(O)/C=C/c1ccccc1 [Compound 11, cinnamic acid, reference compound]	3.47	–	–	–
O=C(OCCOC(=O)c1ccccc1O)c1ccccc1O [Compound 13, Ethane-1,2-diyl bis(2-hydroxybenzoate)]	3.05	–	–	–
CC(C)Cc1ccc(C(C)C(=O)OCCOC(=O)C=Cc2ccccc2)cc1 (centres unmarked) [Compound 14, 2-((2-(4-isobutylphenyl)propanoyl)oxy)ethyl cinnamate]	≥ 4.30	> 3.00	4.30	–
CC(C)Cc1ccc(C(C)C(=O)OCCO)cc1 (centres unmarked) [Compound 3, 2-hydroxyethyl 2-(4-isobutylphenyl)propanoate]	–	> 3.00	–	–
O=C(/C=C/c1ccccc1)OCCOC(=O)c1ccccc1O [Compound 12, (E)-2-(cinnamoyloxy)ethyl 2-hydroxybenzoate]	3.77	–	–	–
O=C(OCCO)c1ccccc1O [Compound 7, 2-hydroxyethyl 2-hydroxybenzoate]	4.30	–	–	–
CCCCCCCCCCCC(=O)OCCOC(=O)c1ccccc1O [DEW4a]	< 3.00	–	2.87	–
CC(C)Cc1ccc(C(=O)OCCOC(=O)C(C)c2ccc(CC(C)C)cc2)cc1 (centres unmarked) [Compound 2, 2-((2-(4-isobutylphenyl)propanoyl)oxy)ethyl 4-isobutylbenzoate]	3.24	> 3.00	–	4900 µM
CCCCCCCCCCCC(=O)OCCOC(=O)C(C)c1ccc(CC(C)C)cc1 (centres unmarked) [Compound 5a, 2-((2-(4-isobutylphenyl)propanoyl)oxy)ethyl dodecanoate]	≥ 4.30	> 3.00	4.30	–
CC(C)Cc1ccc(C(C)C(=O)O)cc1 (centres unmarked) [Compound 1, ibuprofen, reference compound]	3.48	–	–	–
